Data reported in article PMC8170916, “Sublingual AKBA Exerts Antidepressant Effects in the Aβ-Treated Mouse Model” (Biomolecules, 2021).

Experiments:
Aβ-treated mice = assay: Tail suspension test in Aβ-treated mice; format: in vivo; conditions: mice 7 days after icv Aβ 4 µM, sublingual AKBA 5 mg/kg 30 min before, Aβ vs SHAM
mice = assay: Open field test (locomotion); format: in vivo; conditions: 30 min after AKBA or vehicle administration
Procedure: Mice were placed in an open field arena and allowed to explore for 30 min [25]. After each trial, the arena floor was cleaned with 70% ethanol to avoid inter-assay bias. The movements of mice were video recorded and analyzed by ANY-maze tracking software (Ugo Basile-Varese, Gemonio, Italy). Locomotion was evaluated through total crossing measurements.

noradrenaline (NA) = assay: Noradrenaline quantification in PFC and HIPP by HPLC with electrochemical detection; format: in vivo; conditions: mice 7 days after icv Aβ 4 µM, sublingual AKBA 5 mg/kg 30 min earlier
Procedure: (§1) All behavioral experiments were conducted at 5 or 30 min after sublingual administrations of AKBA or vehicle in either SHAM or Aβ-treated mice. Based upon behavioral outcomes observed, neurochemical and biochemical quantifications were performed 30 min after AKBA or vehicle administration in either SHAM or Aβ-treated mice.
(§2) Anesthetized animals were sacrificed by cervical dislocation. Brains were immediately removed and kept on ice for dissection of PFC and HIPP, according to the atlas of Paxinos and Franklin. Tissues were frozen and stored at −80 °C until analyses were carried out. Samples (PFC and HIPP) were homogenized (1:10 w/v) at 4 °C using a PBS buffer containing a 1:100 protease and phosphatase inhibitor cocktail (HALT inhibitors, Thermo Fisher Scientific, Cleveland, OH, USA) for biochemical analyses or perchloric acid 0.1 M for neurochemical analyses. Homogenates were centrifuged at 13,000× g at 4 °C for 20 min, and supernatants were used for further determinations.
5-HT, noradrenaline (NA), and KYN levels were measured in the PFC and HIPP of mice by HPLC coupled with an electrochemical detector (Ultimate ECD, Thermo Scientific Dionex, Milan, Italy) as already reported. Separation was performed by a LC18 reverse phase column (Kinetex, 150 mm × 3.0 mm, ODS 5 μm; Phenomenex, Castel Maggiore-Bologna, Italy). The detection was accomplished by a thin layer amperometric cell (Thermo Scientific Dionex, Milan, Italy) with a 5 mm diameter glassy carbon electrode at a working potential of 400 mV (5-HT and NA) or 0.750 mV (KYN) vs. Pd. The mobile phase consisted of an aqueous buffer containing 75 mM NaH2PO4, 1.7 mM octane sulfonic acid, 0.3 mM EDTA, and acetonitrile 10%, buffered at pH 3.0. […] GLU concentrations were determined by HPLC coupled with fluorescence detection (emission length 460 nm; excitation length 340 nm), as previously published. […] Results were analyzed by Borwin software (version 1.50; Jasco, Cremella, Italy) and the amino acid concentration was expressed as µM. All data were normalized for total area weight and were expressed as concentration/mg of tissue.

kynurenine (KYN) = assay: Kynurenine quantification in PFC and HIPP by HPLC with electrochemical detection; format: in vivo; conditions: mice 7 days after icv Aβ 4 µM, sublingual AKBA 5 mg/kg 30 min earlier
Procedure: as §1, §2
(§3) 5-HT, noradrenaline (NA), and KYN levels were measured in the PFC and HIPP of mice by HPLC coupled with an electrochemical detector (Ultimate ECD, Thermo Scientific Dionex, Milan, Italy) as already reported. Separation was performed by a LC18 reverse phase column (Kinetex, 150 mm × 3.0 mm, ODS 5 μm; Phenomenex, Castel Maggiore-Bologna, Italy). The detection was accomplished by a thin layer amperometric cell (Thermo Scientific Dionex, Milan, Italy) with a 5 mm diameter glassy carbon electrode at a working potential of 400 mV (5-HT and NA) or 0.750 mV (KYN) vs. Pd. The mobile phase consisted of an aqueous buffer containing 75 mM NaH2PO4, 1.7 mM octane sulfonic acid, 0.3 mM EDTA, and acetonitrile 10%, buffered at pH 3.0. The flow rate was kept at 0.7 mL·min-1 by an isocratic pump (Shimadzu LC-10 AD, Kyoto, Japan). Data acquisition and integration were performed by using Chromeleon software (version 6.80, Thermo Scientific Dionex, Milan, Italy). GLU concentrations were determined by HPLC coupled with fluorescence detection (emission length 460 nm; excitation length 340 nm), as previously published. Analyses were carried out using an LC18 reverse phase column (Kinetex, 150 mm × 3.0 mm, ODS 5 μm; Phenomenex, Castel Maggiore, Bologna, Italy) and detection was accomplished by pre-column derivatization with ophthalaldehyde/mercaptopropionic acid. The mobile phase consisted of a 50 mM sodium acetate buffer, at pH 6.95, with gradient methanol increasing linearly from 2 to 30% (v/v) over a 40 min run. […] Results were analyzed by Borwin software (version 1.50; Jasco, Cremella, Italy) and the amino acid concentration was expressed as µM. All data were normalized for total area weight and were expressed as concentration/mg of tissue.

5-HT = 5-HT quantification in PFC and HIPP by HPLC with electrochemical detection; format: in vivo; conditions: mice 7 days after icv Aβ 4 µM, sublingual AKBA 5 mg/kg 30 min earlier
Procedure: as §1, §2, §3

GFAP = assay: Western blotting quantification of GFAP in PFC and HIPP; format: in vivo; conditions: mice 7 days after icv Aβ 4 µM, sublingual AKBA 5 mg/kg 30 min earlier
Procedure: as §1, §2
(§4) The total amount of proteins was measured in homogenates by using Pierce BCA Assay (Thermo Fisher Scientific, Cleveland, OH, USA). Forty µg of the total lysate protein were separated by SDS-PAGE precast gels (Bio-Rad Laboratories Inc., Segrate (MI), Italy), transferred onto nitrocellulose membranes (Bio-Rad Laboratories Inc, Segrate (MI), Italy) and then blocked for 1 h in blocking buffer (SigmaAldrich, Milan, Italy). Rabbit polyclonal antibody against GFAP (Dako Products, USA; 1:2000), rabbit monoclonal antibody against CD11b (Abcam, Cambridge, MA, USA; ab133357, 1:1000) and mouse monoclonal antibody against NF-kB p65 (Santa Cruz Biotechnology, Dallas, Texas, USA; 1:2000) were used to incubate the membranes overnight at 4 °C. After HRP-conjugated specific antibody incubation, ECL reagent (Bio-Rad Laboratories Inc., Segrate (MI), Italy) was added to the immune complex and chemiluminescence was detected by ChemiDoc MP system (Bio-Rad Laboratories Inc., Segrate (MI), Italy). Optical densities of the bands were measured using ImageJ software (http://rsb.info.nih.gov/ij/ accessed on 15 March 2021) and normalized against bands relative to β-actin (1:5000, Abcam, Cambridge, UK).

CD11b = assay: Western blotting quantification of CD11b in PFC and HIPP; format: in vivo; conditions: mice 7 days after icv Aβ 4 µM, sublingual AKBA 5 mg/kg 30 min earlier
Procedure: as §1, §2, §4

NF-kB p65 = assay: Western blotting quantification of NF-kB p65 in PFC and HIPP; format: in vivo; conditions: mice 7 days after icv Aβ 4 µM, sublingual AKBA 5 mg/kg 30 min earlier
Procedure: as §1, §2, §4

intact mice = assay: Preliminary experiments on antidepressant effects in intact mice; format: in vivo; conditions: unpublished observations
Procedure: AKBA (Cayman Chemical Company) was dissolved in sunflower oil, this vehicle was chosen in order to maintain a better tasting and higher density of the final solution thus reducing reflux through the digestive tract. […] Ten µL of the solution (or vehicle alone) was sublingually administered to mice. For intranasal administration, requiring more hydrophilic solution, AKBA was dissolved in DMSO and saline (1:3, v/v), and given to mice at the same final dose of 5 mg/kg. Cerebral AKBA was quantified in a separate subset of mice at 5, 15 and 30 min after its administration, either sublingually or intranasally.

Caco-2 cells = system: Caco-2 cells; design: method as in PMID 19010411; conditions: in vitro model to simulate human intestinal absorption; cited from earlier work
5-LOX = system: 5-LOX; design: method as in PMID 9760176; conditions: cited from earlier work
APPswe/PS1dE9 = system: APPswe/PS1dE9; design: method as in PMID 32109514; conditions: AD genetic model; cited from earlier work

CC(=O)O[C@@H]1CC[C@@]2(C)[C@@H](CC[C@]3(C)[C@@H]2C(=O)C=C2[C@@H]4[C@@H](C)[C@H](C)CC[C@]4(C)CC[C@]23C)[C@@]1(C)C(=O)O [AKBA, 3-O-acetyl-11-keto-β-boswellic acid]
Immobility time in the tail suspension test (Aβ-treated mice): prevented such an effect | Locomotion in the open field test (mice): no difference | NA levels in the HIPP (noradrenaline (NA); HIPP): further increase compared to SHAM mice | NA levels in the PFC (noradrenaline (NA); PFC): significantly increased NA levels | KYN levels in the HIPP (kynurenine (KYN); HIPP): prevented the increase in KYN levels | KYN levels in the PFC (kynurenine (KYN); PFC): prevented such an increase | 5-HT levels in the HIPP (5-HT; HIPP): no differences among experimental groups | 5-HT levels in the PFC (5-HT; PFC): no effect | GFAP levels in the HIPP (optical density normalized to actin) (GFAP; HIPP): restored those levels back to control | GFAP levels in the PFC (optical density normalized to actin) (GFAP; PFC): prevented such an increase | CD11b levels in the HIPP (optical density normalized to actin) (CD11b; HIPP): not able to modify such an outcome | CD11b content in the PFC (optical density normalized to actin) (CD11b; PFC): no differences were found among experimental groups | NF-kB p65 content in the HIPP (optical density normalized to actin) (NF-kB p65; HIPP): prevented such an increase | NF-kB p65 levels in the PFC (optical density normalized to actin) (NF-kB p65; PFC): prevented such an increase | Lowest dose showing antidepressant effects on intact mice (intact mice): 5 mg/kg | Permeability in Caco-2 cells (Caco-2 cells): low permeability | 5-LOX inhibition (5-LOX): 5-LOX inhibitor | Cerebral amyloid beta (Aβ) production and plaque burden in APPswe/PS1dE9 (APPswe/PS1dE9): decrease cerebral amyloid beta (Aβ) production and plaque burden | Cognitive impairments in APPswe/PS1dE9 (APPswe/PS1dE9): able to reverse cognitive impairments
